Tests used:
[1] = target: CK1g1 (Homo sapiens (Human), UniProt Q9HCP0); assay: Kinome-wide profiling; format: biochemical; conditions: read-out: % Residual Activity (mean)
[2] = target: EPHA2 (Homo sapiens (Human), UniProt P29317); assay: Kinome-wide profiling; format: biochemical; conditions: read-out: % Residual Activity (mean)
[3] = target: MARK4 (Homo sapiens (Human), UniProt Q96L34); assay: Kinome-wide profiling; format: biochemical; conditions: read-out: % Residual Activity (mean)
[4] = target: MEK3 (Homo sapiens (Human), UniProt P46734); assay: Kinome-wide profiling; format: biochemical; conditions: read-out: % Residual Activity (mean)
[5] = target: ALK (Homo sapiens (Human), UniProt Q9UM73); assay: Kinome-wide profiling; format: biochemical; conditions: read-out: % Residual Activity (mean)
[6] = system: HCC1954 xenograft; assay: HCC1954 xenograft model, anticancer efficacy; format: in vivo, mouse; conditions: 20 mg/kg and 40 mg/kg, i.p. twice a week
Procedure: (§1) A mouse efficacy experiment was conducted after obtaining approval from the Laboratory Animal Ethics Committee of GenNBio (Review No.: GN-IACUC-Research 22-02-07). SK-Br3 and HCC-1954 cells (1×10^6 cells each) mixed with Matrigel (BD Biosciences) were […] injected into 5-week-old female Balb/c nude mice (Orient Bio, Seongnam, Republic of Korea). After tumors reached a size of about 100 mm^3, the compound, trastuzumab (20 mg/kg), and the like were intraperitoneally injected into mice (n=8 per group)(vehicle: 8% DMSO, 4% Tween-80, 88% PBS). The tumor size was measured twice weekly for about 4 weeks and calculated as follows. Volume (mm^3)=(a×b^2)/2; “a”, maximum diameter; “b”, vertical diameter

[7] = Body weight in SK-Br3 xenograft model; format: in vivo, mouse; conditions: 10 mg/kg and 20 mg/kg, i.p. twice a week
Procedure: as §1

[8] = system: HCC1954 cells; assay: Breast cancer growth inhibitory activity (Cell-titer Glo, 72 h); format: cell-based; conditions: Homo sapiens, read-out: HCC1954 GI50
Summary of the method: (§2)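 Cells seeded at 2,500 (SK-Br3) or 1,000 (HCC1954) per well and grown 24 h before treatment. Viability read by Cell-titer Glo luminescence; IC50 from titration curve fitting.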

[9] = system: SK-Br3 cells; assay: as above; format: cell-based; conditions: Homo sapiens, SK-BR-3; read-out: SK-Br3 GI50
Summary of the method: as §2

[10] = target: PDGFRa (Homo sapiens (Human), UniProt P16234); assay: Kinome-wide profiling; format: biochemical; conditions: read-out: % Residual Activity (mean)
[11] = target: PASK (Homo sapiens (Human), UniProt Q96RG2); assay: Kinome-wide profiling; format: biochemical; conditions: read-out: % Residual Activity (mean)
[12] = target: EPHA8 (Homo sapiens (Human), UniProt P29322); assay: Kinome-wide profiling; format: biochemical; conditions: read-out: % Residual Activity (mean)
[13] = target: SIK1 (Homo sapiens (Human), UniProt P57059); assay: Kinome-wide profiling; format: biochemical; conditions: read-out: % Residual Activity (mean)
[14] = target: PKCtheta (Homo sapiens (Human), UniProt Q04759); assay: Kinome-wide profiling; format: biochemical; conditions: read-out: % Residual Activity (mean)
[15] = target: LKB1 (Homo sapiens (Human), UniProt Q15831); assay: Kinome-wide profiling; format: biochemical; conditions: read-out: % Residual Activity (mean)
[16] = target: STK38L/NDR2 (Homo sapiens (Human), UniProt Q9Y2H1); assay: Kinome-wide profiling; format: biochemical; conditions: read-out: % Residual Activity (mean)
[17] = system: cyclinK; assay: Western blot, cyclinK degradation; format: cell-based; conditions: SK-Br3 and HCC1954 cell lines, 40 and 200 nM, 2 hours
[18] = system: RAF1; assay: Kinome-wide profiling; format: biochemical, human; conditions: 10 μM
[19] = target: CLK1 (Homo sapiens (Human), UniProt P49759); assay: Kinome-wide profiling; format: biochemical; conditions: read-out: % Residual Activity (mean)
[20] = target: HPK1/MAP4K1 (Homo sapiens (Human), UniProt Q92918); assay: Kinome-wide profiling; format: biochemical; conditions: read-out: % Residual Activity (mean)
[21] = target: PRKX (Homo sapiens (Human), UniProt P51817); assay: Kinome-wide profiling; format: biochemical; conditions: read-out: % Residual Activity (mean)
[22] = target: ULK1 (Homo sapiens (Human), UniProt O75385); assay: Kinome-wide profiling; format: biochemical; conditions: read-out: % Residual Activity (mean)
[23] = target: ROCK2 (Homo sapiens (Human), UniProt O75116); assay: Kinome-wide profiling; format: biochemical; conditions: read-out: % Residual Activity (mean)
[24] = target: SYK (Homo sapiens (Human), UniProt P43405); assay: Kinome-wide profiling; format: biochemical; conditions: read-out: % Residual Activity (mean)
[25] = target: RIPK5 (Homo sapiens (Human), UniProt Q6XUX3); assay: Kinome-wide profiling; format: biochemical; conditions: read-out: % Residual Activity (mean)
[26] = target: p70S6Kb/RPS6KB2 (Homo sapiens (Human), UniProt Q9UBS0); assay: Kinome-wide profiling; format: biochemical; conditions: read-out: % Residual Activity (mean)
[27] = target: MLK2/MAP3K10 (Homo sapiens (Human), UniProt Q02779); assay: Kinome-wide profiling; format: biochemical; conditions: read-out: % Residual Activity (mean)
[28] = target: GSK3b (Homo sapiens (Human), UniProt P49841); assay: Kinome-wide profiling; format: biochemical; conditions: read-out: % Residual Activity (mean)
[29] = target: CDK9/cyclin T1 (Homo sapiens (Human), UniProt P50750); assay: Kinome-wide profiling; format: biochemical; conditions: read-out: % Residual Activity (mean)
[30] = target: PAK5 (Homo sapiens (Human), UniProt Q9P286); assay: Kinome-wide profiling; format: biochemical; conditions: read-out: % Residual Activity (mean)
[31] = target: CDK5/P25 (Homo sapiens (Human), UniProt Q00535); assay: Kinome-wide profiling; format: biochemical; conditions: read-out: % Residual Activity (mean)
[32] = target: GRK1 (Homo sapiens (Human), UniProt Q15835); assay: Kinome-wide profiling; format: biochemical; conditions: read-out: % Residual Activity (mean)

Sequence of ALK (Q9UM73 19-1620): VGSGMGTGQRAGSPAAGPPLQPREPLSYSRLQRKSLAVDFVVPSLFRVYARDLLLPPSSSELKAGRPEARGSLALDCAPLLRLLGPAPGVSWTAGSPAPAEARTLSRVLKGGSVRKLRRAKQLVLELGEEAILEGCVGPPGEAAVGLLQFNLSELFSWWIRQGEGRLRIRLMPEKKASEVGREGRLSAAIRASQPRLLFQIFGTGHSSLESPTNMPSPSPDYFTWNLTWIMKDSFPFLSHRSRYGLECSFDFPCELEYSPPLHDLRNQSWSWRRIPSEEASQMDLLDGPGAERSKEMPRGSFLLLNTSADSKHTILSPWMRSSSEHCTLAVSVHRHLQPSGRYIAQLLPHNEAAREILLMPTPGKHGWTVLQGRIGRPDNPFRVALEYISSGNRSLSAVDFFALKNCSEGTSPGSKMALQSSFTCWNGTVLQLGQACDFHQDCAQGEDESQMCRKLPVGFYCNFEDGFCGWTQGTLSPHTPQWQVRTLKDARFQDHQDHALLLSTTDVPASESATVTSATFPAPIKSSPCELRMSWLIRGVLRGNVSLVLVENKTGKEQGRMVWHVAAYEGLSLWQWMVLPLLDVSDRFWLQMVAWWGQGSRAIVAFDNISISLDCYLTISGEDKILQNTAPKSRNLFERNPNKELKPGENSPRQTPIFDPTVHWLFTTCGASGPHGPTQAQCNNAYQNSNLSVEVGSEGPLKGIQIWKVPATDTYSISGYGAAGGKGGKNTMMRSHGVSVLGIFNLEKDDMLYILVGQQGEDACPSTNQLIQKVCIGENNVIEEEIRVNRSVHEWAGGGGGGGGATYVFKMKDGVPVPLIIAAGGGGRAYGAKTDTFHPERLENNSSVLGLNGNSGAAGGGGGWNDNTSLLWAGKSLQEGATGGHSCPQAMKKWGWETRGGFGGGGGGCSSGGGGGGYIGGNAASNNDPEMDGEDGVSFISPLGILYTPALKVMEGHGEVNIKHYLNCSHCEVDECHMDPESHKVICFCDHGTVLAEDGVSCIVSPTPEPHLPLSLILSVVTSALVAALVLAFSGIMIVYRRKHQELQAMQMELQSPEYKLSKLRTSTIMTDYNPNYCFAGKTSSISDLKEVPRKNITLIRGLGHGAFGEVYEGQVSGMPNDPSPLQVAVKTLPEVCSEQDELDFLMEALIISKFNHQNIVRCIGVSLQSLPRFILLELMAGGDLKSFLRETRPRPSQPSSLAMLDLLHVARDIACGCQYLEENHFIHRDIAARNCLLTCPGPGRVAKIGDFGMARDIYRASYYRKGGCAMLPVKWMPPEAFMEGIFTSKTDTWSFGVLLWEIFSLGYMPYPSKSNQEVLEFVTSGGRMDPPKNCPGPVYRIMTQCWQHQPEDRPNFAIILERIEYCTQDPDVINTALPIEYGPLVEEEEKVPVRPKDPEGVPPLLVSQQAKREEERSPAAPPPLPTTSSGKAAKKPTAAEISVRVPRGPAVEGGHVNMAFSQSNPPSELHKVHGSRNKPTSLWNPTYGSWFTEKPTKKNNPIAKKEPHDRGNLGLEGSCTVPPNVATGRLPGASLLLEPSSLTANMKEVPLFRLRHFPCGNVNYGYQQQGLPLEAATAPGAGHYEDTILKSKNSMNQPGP
Sequence of EPHA8 (P29322 28-1005): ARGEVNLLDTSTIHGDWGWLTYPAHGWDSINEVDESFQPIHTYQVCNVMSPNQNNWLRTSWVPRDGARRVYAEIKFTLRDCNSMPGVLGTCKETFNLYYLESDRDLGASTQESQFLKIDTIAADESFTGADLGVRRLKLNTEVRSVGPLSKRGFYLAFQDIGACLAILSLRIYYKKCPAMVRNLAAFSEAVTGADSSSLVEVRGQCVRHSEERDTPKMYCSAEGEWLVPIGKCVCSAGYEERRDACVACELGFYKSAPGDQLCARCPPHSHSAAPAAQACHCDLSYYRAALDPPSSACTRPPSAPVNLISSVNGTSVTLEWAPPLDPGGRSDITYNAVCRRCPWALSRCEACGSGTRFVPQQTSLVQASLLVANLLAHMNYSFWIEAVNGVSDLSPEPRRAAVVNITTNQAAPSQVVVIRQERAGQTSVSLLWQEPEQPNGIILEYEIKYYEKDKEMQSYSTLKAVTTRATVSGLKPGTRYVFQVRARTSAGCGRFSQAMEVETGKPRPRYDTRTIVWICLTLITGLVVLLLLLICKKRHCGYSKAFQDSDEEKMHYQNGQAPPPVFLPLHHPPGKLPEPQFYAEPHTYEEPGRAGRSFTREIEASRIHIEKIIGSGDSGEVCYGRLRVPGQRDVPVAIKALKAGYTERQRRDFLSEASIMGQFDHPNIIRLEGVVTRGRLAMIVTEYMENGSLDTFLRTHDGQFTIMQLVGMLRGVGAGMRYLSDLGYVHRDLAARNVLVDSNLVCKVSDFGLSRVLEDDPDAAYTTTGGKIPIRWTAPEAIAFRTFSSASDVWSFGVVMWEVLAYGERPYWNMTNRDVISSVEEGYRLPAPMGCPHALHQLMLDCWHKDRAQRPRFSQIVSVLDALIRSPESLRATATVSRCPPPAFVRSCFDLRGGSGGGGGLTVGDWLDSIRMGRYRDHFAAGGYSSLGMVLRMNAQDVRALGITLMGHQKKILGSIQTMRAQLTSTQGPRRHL
Sequence of RIPK5 (Q6XUX3 whole entry): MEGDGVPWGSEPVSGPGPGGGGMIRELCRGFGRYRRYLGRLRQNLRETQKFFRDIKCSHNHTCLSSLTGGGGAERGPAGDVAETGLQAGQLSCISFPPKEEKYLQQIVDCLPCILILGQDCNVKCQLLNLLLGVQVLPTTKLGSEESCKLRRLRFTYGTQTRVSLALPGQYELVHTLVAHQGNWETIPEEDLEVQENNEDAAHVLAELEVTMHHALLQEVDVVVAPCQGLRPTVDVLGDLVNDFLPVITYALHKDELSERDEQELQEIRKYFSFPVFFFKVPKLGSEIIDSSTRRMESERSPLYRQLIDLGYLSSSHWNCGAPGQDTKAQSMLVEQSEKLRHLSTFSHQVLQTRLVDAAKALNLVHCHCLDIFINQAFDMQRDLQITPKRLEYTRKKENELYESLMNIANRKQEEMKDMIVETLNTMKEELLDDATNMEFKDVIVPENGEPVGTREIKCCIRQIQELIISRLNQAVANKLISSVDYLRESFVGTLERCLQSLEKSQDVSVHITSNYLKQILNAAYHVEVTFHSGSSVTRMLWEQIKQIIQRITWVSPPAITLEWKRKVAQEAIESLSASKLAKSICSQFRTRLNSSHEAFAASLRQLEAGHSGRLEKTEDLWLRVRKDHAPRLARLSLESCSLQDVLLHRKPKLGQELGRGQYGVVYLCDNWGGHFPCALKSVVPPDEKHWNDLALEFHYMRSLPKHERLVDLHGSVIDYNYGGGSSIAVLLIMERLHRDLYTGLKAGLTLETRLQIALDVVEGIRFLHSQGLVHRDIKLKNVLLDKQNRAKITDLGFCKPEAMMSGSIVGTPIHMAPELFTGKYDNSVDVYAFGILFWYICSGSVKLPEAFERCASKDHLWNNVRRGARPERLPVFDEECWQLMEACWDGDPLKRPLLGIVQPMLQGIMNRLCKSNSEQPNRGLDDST
Sequence of MARK4 (Q96L34 whole entry): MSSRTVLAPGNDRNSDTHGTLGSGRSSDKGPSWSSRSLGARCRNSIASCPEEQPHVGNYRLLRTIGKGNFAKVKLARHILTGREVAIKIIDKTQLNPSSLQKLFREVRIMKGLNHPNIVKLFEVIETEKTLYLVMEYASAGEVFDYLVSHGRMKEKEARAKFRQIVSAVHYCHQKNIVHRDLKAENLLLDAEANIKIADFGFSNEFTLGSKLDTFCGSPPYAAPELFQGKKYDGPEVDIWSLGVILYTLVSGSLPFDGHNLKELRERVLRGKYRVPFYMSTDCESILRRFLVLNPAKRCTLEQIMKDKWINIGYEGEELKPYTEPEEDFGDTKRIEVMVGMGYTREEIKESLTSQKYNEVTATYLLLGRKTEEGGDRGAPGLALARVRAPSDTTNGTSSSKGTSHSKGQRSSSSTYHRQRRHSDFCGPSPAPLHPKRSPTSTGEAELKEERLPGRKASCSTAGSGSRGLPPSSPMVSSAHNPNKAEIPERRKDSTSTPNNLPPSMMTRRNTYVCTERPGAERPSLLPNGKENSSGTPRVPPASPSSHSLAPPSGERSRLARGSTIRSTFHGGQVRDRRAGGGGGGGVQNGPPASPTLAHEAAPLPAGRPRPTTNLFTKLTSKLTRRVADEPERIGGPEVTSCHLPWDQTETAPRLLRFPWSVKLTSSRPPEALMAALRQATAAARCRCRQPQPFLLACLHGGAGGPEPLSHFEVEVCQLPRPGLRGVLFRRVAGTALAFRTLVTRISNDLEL
Sequence of GSK3b (P49841 whole entry): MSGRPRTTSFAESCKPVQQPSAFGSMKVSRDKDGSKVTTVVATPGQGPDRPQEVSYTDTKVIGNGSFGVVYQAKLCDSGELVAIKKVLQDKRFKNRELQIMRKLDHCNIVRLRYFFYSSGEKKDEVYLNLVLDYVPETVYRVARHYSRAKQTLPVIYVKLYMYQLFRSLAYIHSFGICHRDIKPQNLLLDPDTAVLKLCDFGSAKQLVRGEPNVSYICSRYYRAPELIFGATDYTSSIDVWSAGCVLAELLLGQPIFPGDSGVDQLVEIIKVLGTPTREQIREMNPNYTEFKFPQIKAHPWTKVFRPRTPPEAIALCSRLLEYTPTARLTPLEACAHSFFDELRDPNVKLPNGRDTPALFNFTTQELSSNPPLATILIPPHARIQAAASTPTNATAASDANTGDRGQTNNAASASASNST
Sequence of CK1g1 (Q9HCP0 whole entry): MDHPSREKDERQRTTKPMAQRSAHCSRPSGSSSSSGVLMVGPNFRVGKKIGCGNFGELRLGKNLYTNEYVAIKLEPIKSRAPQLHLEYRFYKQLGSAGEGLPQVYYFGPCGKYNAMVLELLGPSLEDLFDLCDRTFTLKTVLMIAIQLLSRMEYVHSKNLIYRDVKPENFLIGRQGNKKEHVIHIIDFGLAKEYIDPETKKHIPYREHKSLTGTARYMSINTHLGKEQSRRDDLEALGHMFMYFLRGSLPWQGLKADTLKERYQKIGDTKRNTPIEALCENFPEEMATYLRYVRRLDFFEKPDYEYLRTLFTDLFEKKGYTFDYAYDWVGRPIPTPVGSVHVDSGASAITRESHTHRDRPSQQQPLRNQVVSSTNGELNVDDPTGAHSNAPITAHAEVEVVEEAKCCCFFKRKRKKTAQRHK

SMILES: CCn1cnc2c(NCc3ccc(-c4ccccn4)nc3)nc(-c3ccc(N)nc3)nc21 [Example 53, N-([2,2′-bipyridin]-5-ylmethyl)-2-(6-aminopyridin-3-yl)-9-ethyl-9H-purin-6-amine]
- remaining activity at 10 µM [1]: 22.9%
- remaining activity at 10 µM [2]: 42.3%
- remaining activity at 10 µM [3]: 66.9%
- remaining activity at 10 µM [4]: 73.5%
- remaining activity at 10 µM [5]: 59.7%
- anticancer efficacy [6]: dose-dependent anticancer efficacy
- mouse body weight [7]: without any change in mouse weight
- GI50 [8]: 36 nM
- GI50 [9]: 38 nM
- remaining activity at 10 µM [10]: 52.8%
- remaining activity at 10 µM [11]: 96.3%
- remaining activity at 10 µM [12]: 94%
- remaining activity at 10 µM [13]: 56.3%
- remaining activity at 10 µM [14]: 79.8%
- remaining activity at 10 µM [15]: 0%
- remaining activity at 10 µM [16]: 36.9%
- cyclinK degradation [17]: induced cyclinK degradation
- cyclinK degradation ([17]; listed as Compound 53): cyclinK levels were greatly suppressed in a dose-dependent manner
- % Residual Activity (mean) [18]: 68.57%
- remaining activity at 10 µM [19]: 13.7%
- remaining activity at 10 µM [20]: 30.2%
- remaining activity at 10 µM [21]: 79.2%
- remaining activity at 10 µM [22]: 70.3%
- remaining activity at 10 µM [23]: 92.2%
- remaining activity at 10 µM [24]: 48.4%
- remaining activity at 10 µM [25]: 67.8%
- remaining activity at 10 µM [26]: 92.2%
- remaining activity at 10 µM [27]: 62.3%
- remaining activity at 10 µM [28]: 5.76%
- remaining activity at 10 µM [29]: 0.78%
- remaining activity at 10 µM [30]: 7.55%
- remaining activity at 10 µM [31]: 1.6%
- remaining activity at 10 µM [32]: 76.3%

— patent US20250101023A1, “HETEROARYL DERIVATIVE AND USES THEREOF” (IUCF-HYU (INDUSTRY-UNIVERSITY COOPERATION FOUNDATION …, priority 2022, published 2025)
